Measurements reported in publication PMC6510372 (Clinical and Translational Science, 2019).
“Also recorded” adds a separate entry of the source.

Tests used:
P-gp [1] = target: T1, P-gp (Homo sapiens, UniProt P08183); experiment: Study 006 cohort 2: effect of steady-state tezacaftor/ivacaftor on digoxin; type: in vivo; conditions: for CL renal: both, human, urine and plasma, oral
CYP3A [2] = experiment: Study 006 cohort 1: effect of itraconazole; type: in vivo, human; conditions: coadministration of itraconazole vs tezacaftor/ivacaftor alone
CYP3A [3] = experiment: Study 770-017: effect of ciprofloxacin; type: in vivo, human; conditions: ciprofloxacin 750 mg q12 h with tezacaftor 50 mg q12 h and ivacaftor 150 mg q12 h
CFTR = conditions: major circulating metabolites in humans; cited from earlier work
CYP3A [4] = experiment: Study 006 cohort 2: effect of steady-state tezacaftor/ivacaftor on midazolam; type: in vivo, human; conditions: midazolam 2.0 mg single dose with/without TEZ 100 mg q.d./IVA 150 mg q12 h, oral, fed, healthy subjects
CYP3A [5] = conditions: cited from earlier work
[6] = Steady-state PK of tezacaftor q.d./ivacaftor twice daily in patients with CF; type: in vivo; conditions: human, plasma, oral
[7] = cited from earlier work
[8] = cited from earlier work; for Food effect on exposure: fat‐containing food vs fasted state
CYP3A [9] = conditions: in vitro; cited from earlier work
[10] = tested on: permeability glycoprotein (P‐gp) efflux transporter; conditions: ref 3 (tezacaftor), ref 6 (ivacaftor); cited from earlier work
P-gp [11] = target: T1, P-gp; conditions: ivacaftor alone, digoxin as model P‐gp substrate; cited from earlier work
CYP3A [12] = conditions: cited from earlier work; remark: listed apart in the source
CYP3A [13] = conditions: human hepatocytes and recombinant human CYP; no reference given; cited from earlier work
[14] = digoxin with tezacaftor 100 mg q.d./ivacaftor 150 mg q12 h vs digoxin alone

T1 sequence (P08183 whole entry): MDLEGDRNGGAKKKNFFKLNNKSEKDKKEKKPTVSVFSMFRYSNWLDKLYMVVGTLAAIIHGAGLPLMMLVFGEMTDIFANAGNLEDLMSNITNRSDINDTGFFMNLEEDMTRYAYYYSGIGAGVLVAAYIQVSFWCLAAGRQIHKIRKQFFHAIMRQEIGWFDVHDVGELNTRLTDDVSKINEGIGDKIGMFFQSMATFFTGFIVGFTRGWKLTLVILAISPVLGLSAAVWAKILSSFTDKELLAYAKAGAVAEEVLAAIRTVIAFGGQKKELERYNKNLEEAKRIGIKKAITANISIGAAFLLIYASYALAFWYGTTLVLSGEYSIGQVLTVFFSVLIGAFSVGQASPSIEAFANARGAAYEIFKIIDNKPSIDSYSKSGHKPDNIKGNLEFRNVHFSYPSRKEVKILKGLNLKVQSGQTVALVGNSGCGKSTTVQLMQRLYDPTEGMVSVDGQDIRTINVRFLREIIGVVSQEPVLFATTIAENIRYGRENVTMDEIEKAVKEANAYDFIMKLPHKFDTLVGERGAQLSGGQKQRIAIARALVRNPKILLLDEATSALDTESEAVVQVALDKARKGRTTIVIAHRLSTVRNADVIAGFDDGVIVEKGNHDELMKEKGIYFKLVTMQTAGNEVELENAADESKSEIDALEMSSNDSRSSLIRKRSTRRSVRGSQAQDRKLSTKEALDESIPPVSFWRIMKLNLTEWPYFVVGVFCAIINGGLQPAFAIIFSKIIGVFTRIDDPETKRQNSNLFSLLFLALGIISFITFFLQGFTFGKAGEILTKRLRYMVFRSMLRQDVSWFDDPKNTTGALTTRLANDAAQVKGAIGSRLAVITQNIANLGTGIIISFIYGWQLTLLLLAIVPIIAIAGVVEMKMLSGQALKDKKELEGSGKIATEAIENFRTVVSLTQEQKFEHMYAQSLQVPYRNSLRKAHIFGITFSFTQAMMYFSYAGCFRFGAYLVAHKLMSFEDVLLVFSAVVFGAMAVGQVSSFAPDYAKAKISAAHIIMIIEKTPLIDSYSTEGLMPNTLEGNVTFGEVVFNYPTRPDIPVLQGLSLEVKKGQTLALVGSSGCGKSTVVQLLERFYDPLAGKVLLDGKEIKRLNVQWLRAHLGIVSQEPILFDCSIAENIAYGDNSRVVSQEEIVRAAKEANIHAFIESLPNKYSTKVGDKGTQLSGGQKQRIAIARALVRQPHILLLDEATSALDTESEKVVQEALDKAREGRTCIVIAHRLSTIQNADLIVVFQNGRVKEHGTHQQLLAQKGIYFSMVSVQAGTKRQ

In the case of `C[C@H]1O[C@@H](O[C@H]2[C@@H](O)C[C@H](O[C@H]3[C@@H](O)C[C@H](O[C@H]4CC[C@@]5(C)[C@H](CC[C@@H]6[C@@H]5C[C@@H](O)[C@]5(C)[C@@H](C7=CC(=O)OC7)CC[C@]65O)C4)O[C@@H]3C)O[C@@H]2C)C[C@H](O)[C@@H]1O` [Digoxin, digoxin], the CL renal (P-gp [1]) is reported as 121 mL/min, the CL renal (P-gp [1]; 0.5 mg) is reported as 128 mL/min and the “Increase of AUC with tezacaftor/ivacaftor” value (P-gp [1]; [14]) is reported as 30%. The “Increase of Cmax with tezacaftor/ivacaftor” value (P-gp [1]; [14]) was 32%.
In the case of `CC(C)(C)c1cc(C(C)(C)CO)c(O)cc1NC(=O)c1c[nH]c2ccccc2c1=O` [M1‐IVA], the “Increase of AUC with itraconazole” value (CYP3A [2]) is reported as 3.6 fold, the “Increase of Cmax (GLSM ratio) with itraconazole” value (“Increase of Cmax (GLSM ratio)” below) (CYP3A [2]) is reported as 1.8 fold and the “GLSM ratio range for AUC and Cmax with/without ciprofloxacin” value (CYP3A [3]) is reported as 0.96−1.10. For the same compound, the “Pharmacological activity/potency relative to parent” value (CFTR) was “approximately one sixth the potency of ivacaftor”.
In the case of `CC1(C)c2cc3cc(NC(=O)C4(c5ccc6c(c5)OC(F)(F)O6)CC4)c(F)cc3n2CC(CO)OC1O` (centres unmarked) [M1‐TEZ], the “Decrease of AUC with itraconazole” value (CYP3A [2]) is reported as ~ 40%, the “Decrease of Cmax with itraconazole” value (CYP3A [2]) is reported as ~ 40% and the “GLSM ratio range for AUC and Cmax with/without ciprofloxacin” value (CYP3A [3]) is reported as 1.17–1.25.
For `CC(C)(C)c1cc(C(C)(C)C(=O)O)c(O)cc1NC(=O)c1c[nH]c2ccccc2c1=O` [M6‐IVA], the “Decrease of AUC with itraconazole” value (CYP3A [2]) is given as 30%, the “GLSM ratio range for AUC and Cmax with/without ciprofloxacin” value (CYP3A [3]) is given as 0.96−1.10 and the “Pharmacological activity/potency relative to parent” value (CFTR) is given as “not considered pharmacologically active”.
With `Cc1ncc2n1-c1ccc(Cl)cc1C(c1ccccc1F)=NC2` [Midazolam, midazolam] the “Effect of TEZ/IVA on PK” value (CYP3A [4]) was “↔”, the “GLSM ratio (90% CI) with/without TEZ/IVA, AUC” value (CYP3A [4]) was 1.12 (1.01–1.25) and the “GLSM ratio (90% CI) with/without TEZ/IVA, Cmax” value (CYP3A [4]) was 1.13 (1.01–1.25). The “Increase of exposure with ivacaftor alone” value (CYP3A [5]; midazolam coadministered with ivacaftor alone) was 50%.
For `CC(C)(C)c1cc(C(C)(C)C)c(NC(=O)c2c[nH]c3ccccc3c2=O)cc1O` [ivacaftor], the “Increase of AUC with itraconazole” value (CYP3A [2]) was 15.6 fold, the “Increase of Cmax (GLSM ratio)” value (CYP3A [2]) was 8.6 fold and the half-life [6] was 9.3 h. For the same compound, the “Eliminated in the feces after metabolic conversion” value ([7]; oral ivacaftor) was 87.8%, the “Urinary excretion as unchanged drug” value ([7]; oral ivacaftor) was “negligible” and the “Total radioactivity recovered in the urine” value ([7]; oral ivacaftor, ivacaftor and its metabolites) was 6.6%. The “Food effect on exposure” value [8] was “increased threefold”, the “Potential for causing DDIs via CYP3A inhibition or induction” value (CYP3A [9]) was “low potential” and the “P‐gp inhibition in vitro” value [10] was “P‐gp inhibitor in vitro”. The “CYP3A inhibition, clinical data” value (CYP3A [5]; ivacaftor alone) was “weak inhibitor of CYP3A”, the “P‐gp inhibition, clinical study” value (P-gp [11]) was “weak inhibitor of P‐gp; also recorded: mild P‐gp inhibitor” and the “Decrease in exposure with lumacaftor” value (CYP3A [12]; ivacaftor administered with lumacaftor) was ~ 80%. The “Metabolic pathway in vitro” value (CYP3A [13]) was “primarily metabolized via CYP3A‐mediated oxidation”.
For `Cc1ccc(NC(=O)C2(c3ccc4c(c3)OC(F)(F)O4)CC2)nc1-c1cccc(C(=O)O)c1` [lumacaftor, reference compound], the CYP3A induction (CYP3A [12]) is listed as “strong inducer of CYP3A”.
In the case of `CC(C)(CO)c1cc2cc(NC(=O)C3(c4ccc5c(c4)OC(F)(F)O5)CC3)c(F)cc2n1C[C@@H](O)CO` [tezacaftor], the “Increase of AUC with itraconazole” value (CYP3A [2]) is reported as 4 fold, the “Increase of Cmax (GLSM ratio)” value (CYP3A [2]) is reported as 2.8 fold and the half-life [6] is reported as ~156 h. The “Administered dose excreted in urine as unchanged drug” value ([7]; oral 14C‐tezacaftor) was “Less than 1%”, the “Dose recovered in urine” value ([7]; oral 14C‐tezacaftor, mostly as the M2 metabolite) was “about 14%” and the “Dose excreted in the feces” value ([7]; oral 14C‐tezacaftor, unchanged or as the M2 metabolite) was 72%. The Mean overall recovery ([7]; oral 14C‐tezacaftor, up to 21 days after the dose) was 86%, the “Dose proportionality of exposure” value ([8]; doses ranging from 10−300 mg) was “approximately dose‐proportional” and the “Food effect on exposure” value [8] was “no food effect”. For the same compound, the “Potential for causing DDIs via CYP3A inhibition or induction” value (CYP3A [9]) was “low potential”, the “P‐gp inhibition in vitro” value [10] was “not an inhibitor” and the “Metabolic pathway in vitro” value (CYP3A [13]) was “primarily metabolized via CYP3A‐mediated oxidation; also recorded: direct glucuronidation as a minor metabolic pathway”.
